# Source: publication PMC3914206
# What was measured:
# Format in all cases: binding
# Conditions in all cases: Compound Concentration 10 µM
# panel of 442 kinases [1] = molecular target: T1, panel of 442 kinases (Homo sapiens, UniProt P36888, K663Q)
# T1 construct: purchased KINOMEscan
# T1 sequence (P36888 27-993 K663Q): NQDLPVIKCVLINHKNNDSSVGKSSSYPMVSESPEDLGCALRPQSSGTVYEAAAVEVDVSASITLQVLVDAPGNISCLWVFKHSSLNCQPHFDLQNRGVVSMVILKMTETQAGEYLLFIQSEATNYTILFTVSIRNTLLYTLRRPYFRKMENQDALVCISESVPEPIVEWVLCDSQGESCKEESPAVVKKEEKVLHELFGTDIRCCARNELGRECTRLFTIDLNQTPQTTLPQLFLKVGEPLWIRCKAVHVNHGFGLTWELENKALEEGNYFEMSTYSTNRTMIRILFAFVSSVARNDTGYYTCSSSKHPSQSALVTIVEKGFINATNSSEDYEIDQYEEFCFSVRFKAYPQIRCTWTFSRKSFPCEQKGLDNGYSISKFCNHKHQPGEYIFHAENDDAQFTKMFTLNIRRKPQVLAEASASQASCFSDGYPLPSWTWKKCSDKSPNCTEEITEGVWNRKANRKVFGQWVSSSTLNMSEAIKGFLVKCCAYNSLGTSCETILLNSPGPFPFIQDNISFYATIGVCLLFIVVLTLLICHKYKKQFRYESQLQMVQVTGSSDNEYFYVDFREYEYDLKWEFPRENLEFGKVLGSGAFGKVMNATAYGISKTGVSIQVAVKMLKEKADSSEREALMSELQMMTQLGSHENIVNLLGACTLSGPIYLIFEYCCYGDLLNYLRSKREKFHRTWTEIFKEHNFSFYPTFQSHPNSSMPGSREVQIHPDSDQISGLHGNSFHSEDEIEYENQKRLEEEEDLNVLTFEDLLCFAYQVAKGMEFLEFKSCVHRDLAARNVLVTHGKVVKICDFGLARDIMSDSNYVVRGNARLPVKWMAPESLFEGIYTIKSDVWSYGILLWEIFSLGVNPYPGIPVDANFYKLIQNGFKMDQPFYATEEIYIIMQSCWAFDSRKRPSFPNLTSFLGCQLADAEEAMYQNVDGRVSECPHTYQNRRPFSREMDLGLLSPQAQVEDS
# Description: (§1) We assessed the selectivity of members of this scaffold using the KINOMEscan methodology across a near comprehensive panel of 442 kinases [[18,27]].
# panel of 442 kinases [2] = molecular target: T2, panel of 442 kinases (Homo sapiens, UniProt P53671)
# T2 construct: purchased KINOMEscan
# T2 sequence (P53671 whole entry): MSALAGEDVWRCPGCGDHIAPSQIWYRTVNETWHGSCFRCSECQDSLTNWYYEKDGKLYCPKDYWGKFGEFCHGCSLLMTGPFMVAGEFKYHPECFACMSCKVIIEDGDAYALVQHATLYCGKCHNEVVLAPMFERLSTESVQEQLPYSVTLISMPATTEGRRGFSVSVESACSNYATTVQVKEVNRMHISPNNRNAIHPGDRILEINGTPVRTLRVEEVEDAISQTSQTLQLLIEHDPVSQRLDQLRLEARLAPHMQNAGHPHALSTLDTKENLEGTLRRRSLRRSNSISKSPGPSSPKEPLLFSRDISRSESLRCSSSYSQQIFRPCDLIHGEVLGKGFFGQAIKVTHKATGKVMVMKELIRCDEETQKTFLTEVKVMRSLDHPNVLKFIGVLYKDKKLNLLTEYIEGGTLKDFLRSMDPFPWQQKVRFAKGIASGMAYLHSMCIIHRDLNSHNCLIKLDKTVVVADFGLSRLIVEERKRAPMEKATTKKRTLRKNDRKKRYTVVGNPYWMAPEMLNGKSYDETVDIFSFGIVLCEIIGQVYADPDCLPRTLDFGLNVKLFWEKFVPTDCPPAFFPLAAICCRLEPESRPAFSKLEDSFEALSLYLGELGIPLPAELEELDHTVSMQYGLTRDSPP
# Description: as §1
# panel of 442 kinases [3] = molecular target: T3, panel of 442 kinases (Homo sapiens, UniProt Q13177)
# T3 construct: purchased KINOMEscan
# T3 sequence (Q13177 whole entry): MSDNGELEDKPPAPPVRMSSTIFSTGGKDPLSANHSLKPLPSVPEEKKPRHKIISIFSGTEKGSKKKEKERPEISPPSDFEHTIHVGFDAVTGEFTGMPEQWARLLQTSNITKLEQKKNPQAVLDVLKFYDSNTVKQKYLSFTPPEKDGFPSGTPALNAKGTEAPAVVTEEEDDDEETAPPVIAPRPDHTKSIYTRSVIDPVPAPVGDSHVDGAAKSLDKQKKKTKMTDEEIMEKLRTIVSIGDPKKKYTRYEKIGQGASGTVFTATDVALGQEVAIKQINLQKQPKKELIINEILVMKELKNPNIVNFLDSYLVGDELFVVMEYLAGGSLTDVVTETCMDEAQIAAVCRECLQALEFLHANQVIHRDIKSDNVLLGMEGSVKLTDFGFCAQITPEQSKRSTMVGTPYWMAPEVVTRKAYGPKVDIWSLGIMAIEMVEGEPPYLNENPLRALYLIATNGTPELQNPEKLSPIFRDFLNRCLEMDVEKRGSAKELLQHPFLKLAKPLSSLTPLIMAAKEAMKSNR
# Description: as §1
structure (smiles),measurement,setting,value
COc1cc(C(=O)N2CCC(N3CCN(C)CC3)CC2)ccc1Nc1ncc2c(n1)N1CCc3cccc(c31)C(=O)N2C [Compound 24],KINOMEscan: FLT3(K663Q),panel of 442 kinases [1],100
CCOc1cc(C(=O)N2CCC(N3CCN(C)CC3)CC2)ccc1Nc1ncc2c(n1)N(C1CCCC1)c1ccccc1C(=O)N2C [Compound 26],KINOMEscan: FLT3(K663Q),panel of 442 kinases [1],100
same,KINOMEscan: LIMK2,panel of 442 kinases [2],100
same,KINOMEscan: PAK2,panel of 442 kinases [3],92
"COc1cc(C(=O)N2CCC(N3CCN(C)CC3)CC2)ccc1Nc1ncc2c(n1)N(C1CCCC1)c1ccccc1C(=O)N2C [Compound 25, 11-cyclopentyl-2-((2-methoxy-4-(4-(4-methylpiperazin-1-yl)piperidine-1-carbonyl)phenyl)amino)-5-methyl-5H-benzo[e]pyrimido[5,4-b][1,4]diazepin-6(11H)-one]",KINOMEscan: FLT3(K663Q),panel of 442 kinases [1],100
same,KINOMEscan: LIMK2,panel of 442 kinases [2],100
same,KINOMEscan: PAK2,panel of 442 kinases [3],90
COc1cc(C(=O)N2CCC(N3CCN(C)CC3)CC2)ccc1Nc1ncc2c(n1)N(C)c1ccccc1C(=O)N2C [15 (LRRK2-IN-1)],KINOMEscan: FLT3(K663Q),panel of 442 kinases [1],97
same,KINOMEscan: LIMK2,panel of 442 kinases [2],100
same,KINOMEscan: PAK2,panel of 442 kinases [3],65
